# Key:
# [1] = target: Neuronal acetylcholine receptor; alpha4/beta2 (Homo sapiens, UniProt P17787+P43681); experiment: Binding affinity to alpha4beta2 nAChR; type: protein-complex assay
# [2] = Oral bioavailability in rat; type: ADME, organism-based; conditions: in vivo
# [3] = target: T1, Neuronal acetylcholine receptor subunit alpha-7 (Homo sapiens, UniProt P36544); experiment: Binding affinity to alpha7 nAchR in human frontal cortex membranes; type: cell membranes, Membrane
# [4] = target: T2, Neuronal acetylcholine receptor subunit alpha-7 (Rattus norvegicus, UniProt Q05941); experiment: Displacement of [3H]-MLA from alpha7 nAChR in rat brain membranes; type: cell membranes
# [5] = target: T3, 5-hydroxytryptamine receptor 3A (Homo sapiens, UniProt P46098); experiment: Displacement of [3H]-BRL-43694 from human 5HT3 receptor
# T3 sequence (P46098 whole entry): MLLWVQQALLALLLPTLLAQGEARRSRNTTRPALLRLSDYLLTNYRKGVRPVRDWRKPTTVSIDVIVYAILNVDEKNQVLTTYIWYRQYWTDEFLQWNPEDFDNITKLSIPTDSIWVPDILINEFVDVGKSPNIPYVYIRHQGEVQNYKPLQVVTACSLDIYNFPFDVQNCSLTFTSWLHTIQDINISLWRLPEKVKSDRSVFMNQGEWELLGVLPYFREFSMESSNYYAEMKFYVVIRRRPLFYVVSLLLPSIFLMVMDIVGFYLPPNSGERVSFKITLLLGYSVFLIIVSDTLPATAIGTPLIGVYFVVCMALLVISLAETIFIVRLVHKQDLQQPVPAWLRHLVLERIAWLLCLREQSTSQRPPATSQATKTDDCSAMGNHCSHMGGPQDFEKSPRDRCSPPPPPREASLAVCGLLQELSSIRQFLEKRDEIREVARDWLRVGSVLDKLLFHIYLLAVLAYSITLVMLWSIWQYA
# [6] = Oral bioavailability in dog; type: ADME, organism-based, Canis lupus familiaris; conditions: in vivo
# [7] = target: T1, Neuronal acetylcholine receptor subunit alpha-7; experiment: Agonist activity at alpha7 nAChR; type: functional
# [8] = Volume of distribution in rat; type: ADME, organism-based; conditions: in vivo
# [9] = Oral bioavailability in mouse; type: ADME, organism-based; conditions: in vivo
# [10] = Volume of distribution in mouse; type: ADME, organism-based; conditions: in vivo
# [11] = target: T2, Neuronal acetylcholine receptor subunit alpha-7; experiment: Binding affinity to alpha7 nAChR in rat brain membranes; type: cell membranes
# [12] = Volume of distribution in dog; type: ADME, organism-based, Canis lupus familiaris; conditions: in vivo
# T1 sequence (P36544 whole entry): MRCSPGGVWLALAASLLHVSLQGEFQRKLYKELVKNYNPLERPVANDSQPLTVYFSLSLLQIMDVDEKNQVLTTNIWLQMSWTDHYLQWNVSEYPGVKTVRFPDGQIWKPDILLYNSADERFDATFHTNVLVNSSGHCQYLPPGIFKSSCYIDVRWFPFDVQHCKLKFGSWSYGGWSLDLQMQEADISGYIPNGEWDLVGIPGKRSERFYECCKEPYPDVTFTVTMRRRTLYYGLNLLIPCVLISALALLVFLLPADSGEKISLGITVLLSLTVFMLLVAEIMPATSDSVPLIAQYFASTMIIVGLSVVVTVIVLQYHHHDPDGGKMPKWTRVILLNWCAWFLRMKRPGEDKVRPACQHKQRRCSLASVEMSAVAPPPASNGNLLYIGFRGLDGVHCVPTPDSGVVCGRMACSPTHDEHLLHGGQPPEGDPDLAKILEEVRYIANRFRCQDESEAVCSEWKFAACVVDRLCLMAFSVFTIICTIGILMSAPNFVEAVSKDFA
# T2 sequence (Q05941 whole entry): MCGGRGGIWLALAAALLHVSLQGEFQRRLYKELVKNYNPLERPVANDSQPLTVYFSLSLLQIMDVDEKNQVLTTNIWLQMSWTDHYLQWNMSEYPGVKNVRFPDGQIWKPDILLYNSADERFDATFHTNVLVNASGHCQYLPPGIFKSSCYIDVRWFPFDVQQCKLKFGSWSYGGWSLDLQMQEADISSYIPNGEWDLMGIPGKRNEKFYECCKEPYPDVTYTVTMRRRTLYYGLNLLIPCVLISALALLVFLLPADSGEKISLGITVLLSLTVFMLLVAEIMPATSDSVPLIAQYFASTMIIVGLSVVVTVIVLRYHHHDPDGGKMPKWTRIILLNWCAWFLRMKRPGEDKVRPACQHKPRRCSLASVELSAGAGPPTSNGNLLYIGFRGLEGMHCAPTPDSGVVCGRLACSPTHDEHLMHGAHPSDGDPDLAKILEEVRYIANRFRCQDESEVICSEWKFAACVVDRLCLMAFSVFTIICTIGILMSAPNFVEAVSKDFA
# Sequence of Neuronal acetylcholine receptor; alpha4/beta2 (P17787 whole entry): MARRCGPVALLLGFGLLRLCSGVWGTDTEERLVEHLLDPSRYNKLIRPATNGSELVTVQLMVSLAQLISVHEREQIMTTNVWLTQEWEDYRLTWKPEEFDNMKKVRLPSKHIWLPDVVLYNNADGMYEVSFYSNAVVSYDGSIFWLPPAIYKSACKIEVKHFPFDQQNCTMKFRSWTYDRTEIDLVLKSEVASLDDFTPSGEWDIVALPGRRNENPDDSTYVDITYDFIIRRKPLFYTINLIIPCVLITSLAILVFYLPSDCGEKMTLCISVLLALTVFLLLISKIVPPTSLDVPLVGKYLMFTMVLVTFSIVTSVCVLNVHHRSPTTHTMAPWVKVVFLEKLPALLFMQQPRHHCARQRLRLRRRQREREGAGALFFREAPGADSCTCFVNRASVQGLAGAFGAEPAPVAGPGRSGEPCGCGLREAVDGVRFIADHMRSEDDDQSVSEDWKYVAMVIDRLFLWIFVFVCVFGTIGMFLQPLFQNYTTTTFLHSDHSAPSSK
# Sequence of Neuronal acetylcholine receptor; alpha4/beta2 (P43681 whole entry): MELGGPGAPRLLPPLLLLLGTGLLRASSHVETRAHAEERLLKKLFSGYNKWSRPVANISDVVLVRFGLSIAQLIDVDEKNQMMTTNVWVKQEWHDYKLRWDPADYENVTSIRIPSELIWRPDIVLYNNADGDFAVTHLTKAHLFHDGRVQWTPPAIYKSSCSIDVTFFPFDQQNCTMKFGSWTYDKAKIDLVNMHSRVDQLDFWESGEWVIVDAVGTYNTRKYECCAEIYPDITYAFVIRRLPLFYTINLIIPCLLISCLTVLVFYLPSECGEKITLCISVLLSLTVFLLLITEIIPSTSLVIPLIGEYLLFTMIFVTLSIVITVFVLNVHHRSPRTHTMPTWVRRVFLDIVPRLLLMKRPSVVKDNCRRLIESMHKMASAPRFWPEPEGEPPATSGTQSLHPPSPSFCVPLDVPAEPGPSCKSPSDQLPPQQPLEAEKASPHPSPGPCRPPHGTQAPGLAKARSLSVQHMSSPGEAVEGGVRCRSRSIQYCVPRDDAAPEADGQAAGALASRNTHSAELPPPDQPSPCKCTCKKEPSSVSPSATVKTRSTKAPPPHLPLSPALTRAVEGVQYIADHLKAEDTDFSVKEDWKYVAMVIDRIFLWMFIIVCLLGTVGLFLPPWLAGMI
smiles,measurement,setting,value
CN1CC2CN(c3ccc(-c4ccccc4)nn3)CC2C1 (configuration not stated),Ki,[1],> 100 µM
same,bioavailability,[2],90%
same,Ki,[3],17 nM
same,Ki,[4],88 nM
same,Ki,[5],150 nM
same,bioavailability,[6],22%
same,EC50,[7],4.26 µM
same,Vd,[8],4 L/kg
same,bioavailability,[9],100%
same,Vd,[10],4 L/kg
same,Ki,[11],10.8 nM
same,Vd,[12],4 L/kg

# Source: ChEMBL document CHEMBL2151039, “Discovery and development of α7 nicotinic acetylcholine receptor modulators” (J Med Chem, 2011)
